# Values joined by “and” are separate entries in the source; they are usually repeats but may differ in a detail not shown here. Equal entries are not always repeated.
# What was measured:
# MpLBD [1] = molecular target: T1, MpLBD (Myzus persicae, UniProt A3EZJ9); experiment: miniaturized automated radioligand-based competition assay, MpLBD; type: binding; settings: 1.3 nM [3H]ponasterone A, no CHAPS, read-out: Ki from radioligand-based MpLBD assay
# T1 sequence (A3EZJ9 70-308): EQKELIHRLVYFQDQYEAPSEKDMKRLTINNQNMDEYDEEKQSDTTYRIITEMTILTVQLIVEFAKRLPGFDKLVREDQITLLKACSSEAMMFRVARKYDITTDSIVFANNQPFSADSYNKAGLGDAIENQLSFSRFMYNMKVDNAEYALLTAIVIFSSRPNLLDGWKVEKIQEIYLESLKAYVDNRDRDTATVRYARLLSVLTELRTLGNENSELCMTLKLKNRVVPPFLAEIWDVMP
# T1 sequence (A3EZK0 32-259 partner): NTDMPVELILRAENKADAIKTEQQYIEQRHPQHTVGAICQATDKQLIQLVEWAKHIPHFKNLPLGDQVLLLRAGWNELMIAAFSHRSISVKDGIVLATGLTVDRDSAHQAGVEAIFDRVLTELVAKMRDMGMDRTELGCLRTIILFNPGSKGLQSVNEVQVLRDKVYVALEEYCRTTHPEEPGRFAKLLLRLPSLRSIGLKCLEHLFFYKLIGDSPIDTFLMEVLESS
# Method: (§1) Subsequently, a miniaturized and automated version of the radioligand-based competition assay was used with MpLBD and BtLBD to obtain Ki values for the non-radioactive, non-fluorescent ecdysteroids that would later be used to validate the competitive inhibition format of the FP assay. While the concept of the assay was unchanged from that described above, some aspects of its execution were different. […] The mixtures were again allowed to reach equilibrium, but this time for 4 h at room temperature. The MpLBD was then captured on a 96-filter array (Unifilter-96 GF/C, Packard, Cat. No. 6005174) and rinsed using the wash tool and vacuum block of the Biomek 2000. The back of each filter-plate was then manually sealed using a sheet of Packard BackSeal, and 25 μl Packard MicroScint-20 scintillation fluid was dispensed into each well. The top of each plate was sealed with Packard TopSeal-A and the filters were allowed to solvate overnight. […] Since the amount of bound radioactivity was at most 28% of the total present, no additional corrections for ligand depletion were applied.
# BtLBD [2] = molecular target: T2, BtLBD (Bemisia tabaci, UniProt A0A142K0N3); experiment: FP competitive inhibition assay with MB4628 tracer, BtLBD; type: binding; settings: 6 nM functional BtLBD, 36 nM MB4628, 2 mM CHAPS, Cheng-Prusoff; read-out: FP-derived Ki, BtLBD
# Method: (§2) For competitive inhibition assays, each well contained standard FP assay buffer containing 36 nM MB4628 and either 5 nM functional MpLBD or 6 nM functional BtLBD. The BtLBD assays, but not the MpLBD ones, were routinely done in the presence of 2 mM CHAPS. The final volume of all assays were 250 μl.
# (§3) The inhibitor concentration at this midpoint was deemed to be the IC50 value for the inhibitor. IC50 values were converted to Ki values using the Cheng-Prusoff equation (Cheng & Prusoff, 1973), as follows: Ki=IC50/(1+([MB4628]tot/Kd)) where [MB-4628]tot is the total concentration of MB4628 in the assay, and Kd is the dissociation constant for MB4628 with the relevant receptor under the conditions of the assay. The Kd values for use in this equation were calculated from the basic FP titration curves (FIG. 3) using the knowledge that the receptor concentration at the titration midpoint is the value at which the receptor is half-saturated with MB4628. The Kd is the free MB4628 concentration at this point, and must therefore be: Kd=[MB4628]tot−([receptor]midpoint)/2
# BtLBD [3] = molecular target: T2, BtLBD; experiment: miniaturized automated radioligand-based competition assay, BtLBD; type: binding; settings: 1.3 nM [3H]ponasterone A, no CHAPS, read-out: Ki from radioligand-based BtLBD assay
# Method: as §1
# MpLBD [4] = molecular target: T1, MpLBD; experiment: FP competitive inhibition assay with MB4628 tracer, MpLBD; type: binding; settings: 5 nM functional MpLBD, 36 nM MB4628, no CHAPS, Cheng-Prusoff; read-out: FP-derived Ki, MpLBD
# Method: as §2, §3
# [5] = molecular target: MpLBD, recombinant M. persicae ecdysone receptor (Myzus persicae, UniProt A3EZJ9); experiment: manual radioligand-based competitive inhibition assay ([3H]ponasterone A), MpLBD; type: binding; settings: for ability to compete with [3H]ponasterone A / bind to MpLBD (in words): radioligand-based assay
# Method: The ability of inokosterone and fluorescent conjugates thereof to bind to recombinant M. persicae ecdysone receptor was assessed using the conventional radioligand binding assay in a competetive inhibition format (adapted from Koelle et al., 1991).
# These procedures were performed manually, as follows. Assays were performed in EcR40 buffer [25 mM Hepes, 40 mM KCl, 10% glycerol, 1 mM sodium EDTA, 3 mM sodium azide] containing 0.5 mg/ml bovine serum albumin (BSA). An extract containing recombinant M. persicae edcdysone receptor, MpLBD, was prepared as described above and diluted in EcR40 buffer containing 0.5 mg/ml BSA to a concentration that generated filter counts around 10 000 cpm when the assay was done in the absence of competing ligands. […] Assays were set up to contain different final concentrations of fluorescent ecdysteroid by including the appropriate volumes of the relevant stock solutions. […] Each incubation was performed in a final volume of […] at room temperature (22° C.) for 90 min, whereupon it was held on ice until the filter adsorption/wash steps could be performed. Three 140 μl aliquots from each completed incubation were applied to glass microfibre filters (GF/C 24 mm diameter, Whatman, Cat. No. 1822024); i.e., every incubation generated three filters, each of which had been wet using 140 μl of the incubation mixture. After exposure to the liquid for 30 sec at room temperature, the wet filter was transferred to a vacuum sinter apparatus (Pyrex Filter Holder, Millipore Corp., Cat. No. XX1002500) and washed rapidly. Washing was done using 2×5 ml of ice-cold EcR40 buffer, intersperced with 3×0.5 ml buffer applied around the circumference of the filter to ensure that its edges were thoroughly rinsed. The damp filter was then transferred to a scintillation vial. When all the filters had been thus processed, 7 ml Packard InstaGel Plus scintillant was added to each scintillation vial. The sealed vials were vortexed and then incubated at room temperature for at least 2 h, during which time the filters became transparent. The vials were then scintillation counted (1 min per filter, tritium program, Packard TriCarb 2100TR scintillation counter). Datapoints were reported as the mean cpm value ±SEM for the three replicate filters arising from each incubation.
# The inhibitor concentration at this midpoint was deemed to be the IC50 value for the inhibitor.
# BtLBD [6] = molecular target: T2, BtLBD; experiment: FP titration of MB4628 with BtLBD; type: binding; settings: for Kd: 36 nM MB4628
# Method: (§4) The standard FP assay buffer was 50 mM sodium phosphate, 100 mM NaCl, pH 7.4, containing 0.5 mg/ml bovine serum albumin. When required, preparative pipetting steps (such as dilution series) were typically done in conventional V-bottomed 96-well microplates (e.g. V-bottomed polypropylene, Greiner Bio-One, Cat. No. 651201). The assays themselves were set up in opaque black flat-bottomed 96-well plates designed for fluorescence measurements (e.g. Nunc, Cat. No. 237108). The final volume of all assays was 250 μl. The FP plate-reader was a POLARstar Optima (Cat. No. 413-201, BMG Labtechnologies, Offenburg, Germany) with fluorescence polarization optics (installed according to the manufacturer's instructions) and operated by FLUOstar Optima software in Plate Mode (Polarization). Excitation was done at 485 nm (filter 485) and emission was detected at 520 nm (filter 520p). The standard instrument setup involved a 3 sec/3 mm shake for the plate prior to commencing reading; readings used 200 flashes/assay. Gain values were typically around 3000 for each channel, with a K-factor close or equal to 1.0.
# (§5) A 250 μl sample of 30 nM fluorescein in 50 mM sodium phosphate, 100 mM NaCl, pH 7.4, was known to have a polarization value of 35 mP and was used to calibrate the FP plate-reader.
# Receptor LBD titrations involved mixing a small volume (e.g. 2.5 μl) of diluted receptor LBD heterodimer stock with a larger volume (e.g. 247.5 μl) of standard FP assay buffer containing 36 nM MB4628. Where indicated, CHAPS was present at a final concentration of 2 mM. Receptor dilutions were typically arranged to cover a wide concentration range, e.g. 0.005-50 nM functional receptor. The assay mixtures were allowed to reach equilibrium, typically by incubating overnight at 4° C. and then equilibrating at room temperature (20° C.) for 2-4 h before reading the mP values. When plotting the data, smooth curves were drawn for the FP titrations using a Flexicurve; these represent a more realistic fit to the data than the linear point-to-point plots shown (for convenience of printing) in FIG. 3.
# as §3
# The effect of omitting CHAPS from BtLBD competitive inhibition assays was tested directly. Thus, in a BtLBD experiment that departed from standard procedure, 10 nM functional BtLBD was incubated with 36 nM MB4628 and increasing concentrations of non-fluorescent ecdysteroids, but without CHAPS.
# LcLBD = experiment: FP titration of MB4628 with LcLBD; type: binding, Lucilia cuprina; settings: 36 nM MB4628, no CHAPS
# Method: as §4, with “Gain values were typically around 3000 for each channel, with a K-factor close or equal to 1.0.” left out
# (§6) A 250 μl sample of 30 nM fluorescein in 50 mM sodium phosphate, 100 mM NaCl, pH 7.4, was known to have a polarization value of 35 mP and was used to calibrate the FP plate-reader. […] Thereafter, at the commencement of each experimental session, the FP plate-reader was adjusted to give a reading of 100 mP for a 250 μl sample of 36 nM MB4628 in standard FP assay buffer. […]
# HaLBD = experiment: FP titration of MB4628 with HaLBD; type: binding, Helicoverpa armigera; settings: 36 nM MB4628, no CHAPS
# Method: as §4, with “Gain values were typically around 3000 for each channel, with a K-factor close or equal to 1.0.” left out
# as §6
# MpLBD [7] = molecular target: T1, MpLBD; experiment: FP titration of MB4628 with MpLBD; type: binding
# Method: as §4, §5
# Receptor LBD titrations involved mixing a small volume (e.g. 2.5 μl) of diluted receptor LBD heterodimer stock with a larger volume (e.g. 247.5 μl) of standard FP assay buffer containing 36 nM MB4628. Where indicated, CHAPS was present at a final concentration of 2 mM. […] The assay mixtures were allowed to reach equilibrium, typically by incubating overnight at 4° C. and then equilibrating at room temperature (20° C.) for 2-4 h before reading the mP values. […]
# The inhibitor concentration at this midpoint was deemed to be the IC50 value for the inhibitor. […] The Kd values for use in this equation were calculated from the basic FP titration curves (FIG. 3) using the knowledge that the receptor concentration at the titration midpoint is the value at which the receptor is half-saturated with MB4628. […]
Compound,Ki (MpLBD [1]),Ki (BtLBD [2]),Ki (BtLBD [3]),Ki (MpLBD [4]),Ki [5],ability to compete with [3H]ponasterone A / bind to MpLBD (in words) [5],other results
"2β,3β,14α,20R,22R,25-hexahydroxy-5β-cholest-7-ene-6-one [20-hydroxyecdysone]",0.1 µM,0.994 µM,0.24 µM,1.49 µM,–,–,–
CCN(CC)c1ccc2cc(NC(=O)OCC(C)CCC(O)C(C)(O)C3CCC4(O)C5=CC(=O)C6CC(O)C(O)CC6(C)C5CCC34C)c(=O)oc2c1 (stereo not drawn) [MB4592],–,–,–,–,0.02 µM,unimpaired,–
COc1ccc2cc(NC(=O)OCC(C)CC[C@@H](O)C(C)(O)C3CC[C@@]4(O)C5=CC(=O)[C@@H]6C[C@@H](O)[C@@H](O)CC6(C)C5CCC34C)c(=O)oc2c1 (stereo partly drawn) [MB4603],–,–,–,–,0.04 µM,unimpaired,–
CC(CC[C@@H](O)C(C)(O)C1CC[C@@]2(O)C3=CC(=O)[C@@H]4C[C@@H](O)[C@@H](O)CC4(C)C3CCC12C)COS(=O)(=O)c1cccc2c(N(C)C)cccc12 (stereo partly drawn) [MB4622],–,–,–,–,–,highly effective ligand,–
CC(CCC(O)C(C)(O)C1CCC2(O)C3=CC(=O)C4CC(O)C(O)CC4(C)C3CCC12C)COC(=S)Nc1ccc2c(c1)C(=O)OC21c2ccc(O)cc2Oc2cc(O)ccc21 (stereo not drawn) [MB4628],–,–,–,–,0.04 µM,unimpaired,"FP titration midpoint, BtLBD, 2 mM CHAPS (BtLBD [6]; 36 nM MB4628, 2 mM CHAPS, FIG. 3B experiment): 1.5 nM functional BtLBD; FP titration midpoint, BtLBD, CHAPS-free (BtLBD [6]; 36 nM MB4628, CHAPS-free, FIG. 3B experiment): 4.5 nM; mPmax, BtLBD (BtLBD [6]; 36 nM MB4628, no CHAPS): 210-260 mP; FP titration curve midpoint, BtLBD (BtLBD [6]; 36 nM MB4628, no CHAPS (FIG. 3A)): 1 to 5 nM functional receptor; Kd (BtLBD [6]; Kd for MB4628, BtLBD without CHAPS, without CHAPS): 0.0347 µM; Kd (BtLBD [6]; Kd for MB4628 from FP titration curve, BtLBD, with 2 mM CHAPS): 0.0353 µM; FP titration curve midpoint, LcLBD (LcLBD): 2.5 nM functional receptor; mPmax, LcLBD (LcLBD): 220 mP; FP titration curve midpoint, HaLBD (HaLBD): 3.5 nM functional receptor; mPmax, HaLBD (HaLBD): 230 mP; FP titration curve midpoint, MpLBD (MpLBD [7]; 36 nM MB4628, no CHAPS): 1.1-1.8 nM functional receptor; maximum mP value (mPmax), MpLBD (MpLBD [7]; 36 nM MB4628, no CHAPS): 335 mP; Kd (MpLBD [7]; without CHAPS, 36 nM MB4628, read-out: Kd for MB4628 from FP titration curve, MpLBD): 0.0353 µM"
CC(CO)CC[C@@H](O)[C@](C)(O)[C@H]1CC[C@@]2(O)C3=CC(=O)[C@@H]4C[C@@H](O)[C@@H](O)C[C@]4(C)[C@H]3CC[C@]12C (stereo partly drawn) [inokosterone],–,–,–,–,0.065 µM,–,–
CC(C)CC[C@@H](O)[C@](C)(O)[C@H]1CC[C@@]2(O)C3=CC(=O)[C@]4(O)C[C@@H](O)[C@@H](O)C[C@]4(C)[C@H]3[C@H](O)C[C@]12C [muristerone A],0.03 µM,0.027 µM,0.0053 µM,0.149 µM,–,–,–
CC(C)CC[C@@H](O)[C@](C)(O)[C@H]1CC[C@@]2(O)C3=CC(=O)[C@@H]4C[C@@H](O)[C@@H](O)C[C@]4(C)[C@H]3CC[C@]12C [ponasterone A],0.00028 µM and ~0.0003 µM,0.0074 µM,0.0048 µM,0.001 µM,–,–,–

# Source: patent publication US20070292967A1, “Assay for Ligands of the Ecdysone Receptor” (COMMONWEALTH SCIENTIFIC AND INDUSTRIAL RESEARCH OR, priority 2003, published 2007)
